The text below walks through data of ChEMBL document CHEMBL1158304, “New Oxygenated Cephalotaxus Alkaloids from Cephalotaxus harringtonia var. drupacea” (J Nat Prod, 1996).

Values after ≈ are worked out from the molar mass of the structure shown.

The test system of this test is P388. Kind of test: Cytotoxicity against mouse P388 cells. Type of test: functional, cell-based.
In the case of `COC(=O)C[C@](O)(CCCC(C)C)C(=O)O[C@@H]1C(OC)=C[C@]23CCCN2C[C@H](O)c2cc4c(cc2[C@H]13)OCO4`, the IC50 (in general, the concentration that gives 50% inhibition) amounted to 0.33 µg/mL (≈ 0.605 µM). `COC(=O)C[C@](O)(CCCC(C)C)C(=O)O[C@@H]1C(OC)=C[C@]23CCCN2C[C@@H](O)c2cc4c(cc2[C@H]13)OCO4` registered an IC50 of 0.38 µg/mL (≈ 0.696 µM).

`COC(=O)C[C@](O)(CCC(C)C)C(=O)O[C@@H]1C(OC)=C[C@]23CCCN2C[C@H](O)c2cc4c(cc2[C@H]13)OCO4`: it took 0.17 µg/mL (≈ 0.32 µM) to reach half-maximal inhibition (IC50).
